ChEMBL document CHEMBL6087481, “Interleukin-1 Receptor-Associated Kinase 4 (IRAK4) Degraders for Treating Inflammatory Diseases: Advances and Prospects” (J Med Chem, 2025)
pIC50: −log10 of the molar value. Each block holds one compound with its values, some of them ahead of it.

Columns and labels:
[1] = target: T1, Interleukin-1 receptor-associated kinase 4 (Homo sapiens, UniProt Q9NWZ3); test: Inhibition of IRAK4 (unknown origin)
T1 sequence (Q9NWZ3 whole entry): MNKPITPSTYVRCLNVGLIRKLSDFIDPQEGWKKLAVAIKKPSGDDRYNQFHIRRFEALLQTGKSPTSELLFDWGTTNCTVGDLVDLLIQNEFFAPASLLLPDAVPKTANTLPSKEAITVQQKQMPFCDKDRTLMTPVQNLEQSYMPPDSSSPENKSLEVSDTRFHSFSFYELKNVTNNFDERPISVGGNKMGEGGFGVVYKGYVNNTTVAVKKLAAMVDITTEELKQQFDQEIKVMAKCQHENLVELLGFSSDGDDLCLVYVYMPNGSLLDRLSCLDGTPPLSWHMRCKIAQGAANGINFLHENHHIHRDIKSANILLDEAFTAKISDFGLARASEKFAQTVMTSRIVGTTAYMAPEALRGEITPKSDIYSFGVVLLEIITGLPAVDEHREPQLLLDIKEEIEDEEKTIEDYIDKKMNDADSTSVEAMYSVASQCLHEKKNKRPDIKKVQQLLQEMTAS

[2] = target: von Hippel-Lindau disease tumor suppressor/Interleukin-1 receptor-associated kinase 4 (Homo sapiens, UniProt Q9NWZ3+P40337); test: PROTAC activity at VHL/IRAK4 in human HEK293T cells assessed as IRAK4 degradation measured after 24 hrs by immunoblotting analysis; type: cell-based
[3] = target: T2, Protein cereblon/Interleukin-1 receptor-associated kinase 4 (Mus musculus, UniProt Q8C7D2+Q8R4K2); test: PROTAC activity at IRAK4/CRBN in mouse RAW264.7 cells assessed as reduction in IRAK4 level incubated for 12 hrs by Western blot analysis; type: cell-based
T2 sequence (Q8C7D2 whole entry): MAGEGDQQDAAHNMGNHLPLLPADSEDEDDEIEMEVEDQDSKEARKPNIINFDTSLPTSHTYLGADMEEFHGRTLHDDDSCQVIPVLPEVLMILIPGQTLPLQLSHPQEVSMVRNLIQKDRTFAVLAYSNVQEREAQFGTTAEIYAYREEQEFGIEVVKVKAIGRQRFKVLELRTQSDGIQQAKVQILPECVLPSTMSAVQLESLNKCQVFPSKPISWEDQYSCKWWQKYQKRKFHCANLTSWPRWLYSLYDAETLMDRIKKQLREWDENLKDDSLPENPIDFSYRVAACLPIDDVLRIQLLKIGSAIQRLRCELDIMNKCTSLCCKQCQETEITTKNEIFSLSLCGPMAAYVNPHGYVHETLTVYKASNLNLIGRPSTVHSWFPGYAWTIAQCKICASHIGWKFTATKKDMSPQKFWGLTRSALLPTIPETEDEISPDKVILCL
T2 sequence (Q8R4K2 whole entry): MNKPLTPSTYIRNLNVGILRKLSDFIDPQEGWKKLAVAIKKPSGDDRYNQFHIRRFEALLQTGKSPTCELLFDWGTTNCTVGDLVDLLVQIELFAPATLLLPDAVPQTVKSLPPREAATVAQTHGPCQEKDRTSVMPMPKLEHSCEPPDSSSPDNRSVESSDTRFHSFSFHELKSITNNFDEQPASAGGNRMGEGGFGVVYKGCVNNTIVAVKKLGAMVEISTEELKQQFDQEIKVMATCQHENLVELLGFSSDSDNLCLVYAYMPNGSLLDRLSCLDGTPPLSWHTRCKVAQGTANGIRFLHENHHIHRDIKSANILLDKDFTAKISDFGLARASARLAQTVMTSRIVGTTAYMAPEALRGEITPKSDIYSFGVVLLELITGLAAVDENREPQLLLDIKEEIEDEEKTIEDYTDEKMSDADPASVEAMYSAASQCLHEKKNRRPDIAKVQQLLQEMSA

Chain of von Hippel-Lindau disease tumor suppressor/Interleukin-1 receptor-associated kinase 4 (P40337 whole entry, one chain of several): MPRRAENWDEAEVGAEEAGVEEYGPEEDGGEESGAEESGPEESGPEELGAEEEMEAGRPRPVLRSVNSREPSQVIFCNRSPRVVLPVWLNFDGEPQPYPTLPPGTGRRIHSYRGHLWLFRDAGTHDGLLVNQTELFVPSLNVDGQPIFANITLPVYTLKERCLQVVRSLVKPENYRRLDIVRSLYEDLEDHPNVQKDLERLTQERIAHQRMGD

pIC50 [1]: 8.52
SMILES: CC(C)Nc1cc(-n2ccc3cc(C#N)cnc32)ncc1C(=O)N[C@H]1CC[C@H](C(=O)NC2CC2)CC1

SMILES: CC(C)Nc1cc(-n2ccc3cc(C#N)cnc32)ncc1C(=O)N[C@H]1CC[C@H](C(=O)NCCOCCNC(=O)Oc2cccc3c2C(=O)N(C2CCC(=O)NC2=O)C3=O)CC1 (stereo partly drawn)
DC50 [2]: 405 nM

DC50 [3]: 47.3 nM
SMILES: COc1cc(N2CCN(C(=O)CCOCC#Cc3ccc4c(c3)C(=O)N(C3CCC(=O)NC3=O)C4=O)CC2)ccc1NC(=O)c1cccc(-c2ccn[nH]2)n1 (stereo not drawn)
